Experimental data from US20030206936A1, “Cosmetic composition and method of treating skin and hair” (Unilever Home & Personal Care USA, Division of Conopco, Inc., priority 2002, published 2003).

Assays:
Assay type in all cases: cell-based
[1] = tested on: Corynebacterium A NCIMB 40928; experiment: In vitro model of fatty acid catabolism by corynebacteria A (TVC, glucose and pentadecanoic acid utilisation); details: 24 h
Method: An in vitro model system, reproducing fatty acid catabolism by corynebacteria A, consisted of 250 ml baffled shake flasks, to which were added 30 ml semi-synthetic medium (see below) supplemented with fatty acid substrate (2.0 mg/ml pentadecanoic acid) and non-fatty acid substrate (0.5 mg/ml glucose). This system was employed to evaluate sargahydroquinoic acid as a potential deodorant active: to each flask (other than the control) was added and specific dose of sargahydroquinoic acid (isolated from Kombo nut oil at >90% purity), from a 25 g/l stock emulsion in semi-synthetic medium supplemented with 5.0 mg/ml Gum Arabic (formed by ultra-homogenisation at 24000 rpm for 1 min) Flasks were inoculated with fresh bacterial biomass (Corynebacterium A NCIMB 40928), pre-grown for 24 h in TSBT (see below), to give starting optical densities (A5 9 0) of ˜1.0. Following inoculation, flasks were incubated aerobically at 35°0 C., with agitation (130 rpm), and analysed at 24 h. Culture viability was determined by total viable count (TVC) analysis on TSAT plates (see below) following serial dilution in quarter-strength Ringers solution. Fatty acid concentrations were determined by capillary gas chromatography (GC) (see below), while residual glucose levels were measured with blood glucose test strips (BM-Test 1-44; Boehringer Mannheim) used in conjunction with a ReflofluxS glucose meter (Boehringer Mannheim). A ‘sub-lethal’ effect is defined as significant inhibition of fatty acid catabolism, typically greater than 50% inhibition of pentadecanoic acid utilization, without concomitant reductions in Corynebacterium A viability (≦1 log10 CFU/ml reduction) or glucose utilization (≦10% reduction). Outside one or both of these defined boundaries, the effect may be described as ‘antimicrobial’, where ‘antimicrobial’ includes both bacteriostatic & bactericidal effects. Composition of Tween-supplemented Tryptone soya broth & agar (TSBT & TSAT) used for growth & maintenance of axillary bacterial (g/l): Tryptone soya broth (30.0); Yeast Extract (Beta Lab) (10.0); Tween 80™ (1.0); ± Agar (20.0). Composition of semi-synthetic medium used in in vitro system simulating fatty acid catabolism by corynebacteria A (g/l): KH2PO, (1.6);(NH4) 2HPO4(5.0); Na2SO4 (0.38); Yeast Nitrogen Base (Difco)(3.35); Yeast Extract (Beta Lab)(0.5); Tween 80™ (0.2); Triton X-100™ (0.2); MgCl2.6H20(0.5). Fatty acid levels in the flasks were determined by capillary GC analysis. Initially, 5.0 ml aliquots from each flask were transferred into universal tubes; an internal standard (lauric acid, 1.0 mg/ml final concentration) was added to each tube and the culture medium acidified (pH ˜2) by the addition of hydrochloric acid. Liquid-liquid extraction was then carried out using 2 vol (10 ml) ethyl acetate; organic and aqueous phases were resolved by centrifugation (2000 rpm, 3 min). ˜0.75 ml of each organic (upper) phase was then transferred to a sampling vial prior to analysis on a Perkin Elmer 8000 (Series 2) GC fitted with a 15 m ×0.32 mm (internal diameter) FFAP (nitroterephalic acid modified PEG/siloxane copolymer) fused silica capillary column (film thickness […]) (Quadrex). This column was attached to the split-splitless injector and flame ionisation detector (FID) of the GC; injector and detector temperatures were each 300° C. Carrier gas for the column was helium (6 psi), while hydrogen (17 psi) and air (23 psi) supplied the FID. The temperature programme for fatty acid analysis was 80° C.(2 min); 80-250° C. (20° C./min); 250° C. (5 min). Sample size for injection was 0.5-1.0 μl . Fatty acid levels in the flasks were quantified by comparison of peak areas with known levels of both internal (lauric acid) and externally-run (pentadecanoic acid) standards.

[2] = target: T1, PPARα (Homo sapiens, UniProt Q07869); experiment: Reporter gene assay (PPARα) in transfected Cos-7 cells; details: 10 μM, 24 hours
T1 construct: expressed in transfected cells; host or cells: Cos-7 cells (ECACC No. 87021302), transient transfection with LipofectAMINE
T1 sequence (Q07869 1-468): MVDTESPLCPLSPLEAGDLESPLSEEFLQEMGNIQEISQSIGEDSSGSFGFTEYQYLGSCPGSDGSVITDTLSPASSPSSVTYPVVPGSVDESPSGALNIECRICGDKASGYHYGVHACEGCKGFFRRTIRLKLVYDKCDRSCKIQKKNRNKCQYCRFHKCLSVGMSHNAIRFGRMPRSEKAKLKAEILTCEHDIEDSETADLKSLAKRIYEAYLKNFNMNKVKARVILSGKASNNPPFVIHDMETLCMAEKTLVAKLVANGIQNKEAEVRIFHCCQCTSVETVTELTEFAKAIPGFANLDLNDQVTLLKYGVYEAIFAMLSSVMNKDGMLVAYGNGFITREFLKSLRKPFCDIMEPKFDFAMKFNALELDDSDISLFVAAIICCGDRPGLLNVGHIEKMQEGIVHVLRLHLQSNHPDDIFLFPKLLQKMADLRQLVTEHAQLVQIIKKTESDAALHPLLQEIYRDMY
Method: The following assay protocol is responsive to ligands of PPARα or retinoid X receptor.
Reporter Gene Assay Protocol
Cos-7 cells (ECACC No. 87021302) were routinely grown in DMEM with 10% FCS (foetal calf serum) at 37° C., 5% CO2 to 80% confluency. Transient transfections were performed as described by the manufacturers (GibcoBRL). Briefly, cells were plated out in 24 well plates at 50,000 cells per well and incubated overnight in DMEM with 10% FCS at 37° C., 5% CO2,. Cells were then transfected using the LipofectAMINE reagent. For each well, 0.5 μg of DNA mix (for “control” cells pPPRE3TK-luc 0.40 μg; pRL-TK 0.04 μg; pcDNA3.1(−) 0.03 μg; pRSV 0.03 μg; for “plus RXRα” cells pPPRE3TK-luc 0.40 μg; pRL-TK 0.04 μg; pcDNA3.1(−) 0.03 μg; pRSV/RXRα 0.03 μg; for “plus PPARα” cells pPPRE3TK-luc0.40 μg; pRL-TK 0.04 μg pcDNA3.1(−)/PPARα 0.03 μg pRSV 0.03 μg) in 25 μl of DMEM was incubated with 1 μl LipofectAMINE, also in 25 μl of DMEM for 45 minutes.
The mixture was then made up to 250 μl per well and added to the cells, which had been washed with 1 ml of DMEM. Cells were then incubated for 5 hours at 37° C., 5% CO2, and 250 μl DMEM with 20% SBCS (charcoal stripped bovine calf serum (Sigma)) added. Cells were allowed to recover for 18 hours at 37° C., 5% CO2 before being treated. […]

[3] = tested on: decorin; experiment: Dot blot assay for decorin synthesis in human dermal fibroblasts; details: primary human foreskin fibroblasts, 24 hours, relative to vehicle control; effect similar to retinoic acid
Method: Procedure For Measuring Procollagen-I and Decorin Synthesis in Human Dermal Fibroblasts
Preparation of Dermal Fibroblast Conditioned Medium
Primary human foreskin fibroblasts at passage 2 (P2) were seeded into 12-well plates at 10000 cells/cm^2 and maintained for 24 hours in an atmosphere of 5% carbon dioxide and 4% oxygen in Dulbeccos Modified Eagles Medium (DMEM) supplemented with 10% foetal calf serum. After this time the cells were washed with serum free DMEM and then incubated in fresh serum free DMEM for a further 60 hours. The fibroblast monolayers were then washed again with serum free DMEM. […] This fibroblast conditioned medium was either analyzed immediately or snap frozen in liquid nitrogen and stored at −70° C. for future analysis. The cells were then counted and data from the dot-blot analysis subsequently standardized to cell number. […]
Following this the Immobilon strips were again washed with TBS/Tween 20 (3×5 minutes) before being allowed to dry in air at room temperature. […] Dot intensity was assessed by computer-assisted image TM analysis using the quantification tools in ImageQuant™, standardized to cell number and the effects of various test reagents on decorin and procollagen-I synthesis were determined relative to a vehicle treated control value of 100 arbitrary units.

## CC(C)=CCC/C(=C/CC/C(C)=C/CC/C(C)=C/Cc1cc(O)cc(C)c1O)C(=O)O [Sargahydroquinoic acid]
[1]; 0.05 g/l
  Glucose Utilisation: 100%
  Pentadecanoic Acid Utilisation: 99%
  TVC: 8.67 log10 CFU/ml
[1]; 0.1 g/l, * sub-lethal
  Glucose Utilisation: 100* %
  Pentadecanoic Acid Utilisation: 58* %
  TVC: 8.83* log10 CFU/ml
[1]; 0.25 g/l, * sub-lethal
  Glucose Utilisation: >90* %
  Pentadecanoic Acid Utilisation: 15* %
  TVC: 7.93* log10 CFU/ml
[1]; 0.5 g/l, * sub-lethal
  Glucose Utilisation: 100* %
  Pentadecanoic Acid Utilisation: 19* %
  TVC: 7.85* log10 CFU/ml
[1]; 1.0 g/l, antimicrobial effect
  Glucose Utilisation: >90%
  Pentadecanoic Acid Utilisation: 5%
  TVC: 7.3 log10 CFU/ml
[1]; 2.5 g/l, antimicrobial effect
  Glucose Utilisation: 7%
  Pentadecanoic Acid Utilisation: 25%
  TVC: <3.0 log10 CFU/ml
[1]; Corynebacterium, NCIMB40928, 0.05 g/l, in parentheses = not significant
  inhibition at 50 µg/mL: 1%
[1]; Corynebacterium, NCIMB40928, 0.1 g/l, * sub-lethal
  inhibition at 100 µg/mL: 42%
[1]; Corynebacterium, NCIMB40928, 0.25 g/l, * sub-lethal
  inhibition at 250 µg/mL: 85%
[1]; Corynebacterium, NCIMB40928, 0.5 g/l, * sub-lethal
  inhibition at 500 µg/mL: 81%
[1]; Corynebacterium, NCIMB40928, 1.0 g/l, antimicrobial effect
  inhibition at 1000 µg/mL: 95%
[1]; Corynebacterium, NCIMB40928, 2.5 g/l, antimicrobial effect
  inhibition at 2500 µg/mL: 75%
[2]
  PPARα ligand activity in reporter gene assay (FIG. 2): is a ligand for PPARα
[3]
  effect on decorin production (FIG. 1): enhances decorin production
